The values below come from patent publication US12391697B2, “Condensed bi-heterocycles as inhibiting agents for Bruton's tyrosine kinase” (BIOGEN MA INC., priority 2019, dated 2025).

SMILES strings stand for the structures. Counter-ions that a name gives are not always drawn. Where only a bound is given, the exact number is not on record here.

BTK, sequence (Q06187 whole entry): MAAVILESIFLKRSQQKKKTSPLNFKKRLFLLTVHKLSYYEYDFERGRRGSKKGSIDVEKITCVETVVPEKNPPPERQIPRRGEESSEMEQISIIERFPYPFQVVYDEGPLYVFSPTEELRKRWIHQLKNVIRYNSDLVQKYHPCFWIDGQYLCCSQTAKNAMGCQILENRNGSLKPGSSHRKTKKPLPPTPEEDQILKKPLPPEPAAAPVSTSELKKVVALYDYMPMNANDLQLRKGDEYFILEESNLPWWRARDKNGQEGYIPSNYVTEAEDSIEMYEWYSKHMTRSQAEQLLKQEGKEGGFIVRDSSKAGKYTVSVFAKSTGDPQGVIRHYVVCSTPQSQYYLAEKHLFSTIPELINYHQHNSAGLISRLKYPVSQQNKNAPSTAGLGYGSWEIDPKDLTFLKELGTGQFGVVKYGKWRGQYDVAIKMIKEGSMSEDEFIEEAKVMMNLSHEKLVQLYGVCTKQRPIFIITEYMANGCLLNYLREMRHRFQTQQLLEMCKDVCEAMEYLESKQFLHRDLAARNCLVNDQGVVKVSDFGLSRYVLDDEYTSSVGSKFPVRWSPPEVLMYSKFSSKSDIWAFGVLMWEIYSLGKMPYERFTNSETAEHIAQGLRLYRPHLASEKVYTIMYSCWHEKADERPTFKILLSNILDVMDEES

This assay concerns the target BTK (Homo sapiens (Human), UniProt Q06187). In words: In Vitro BTK Kinase Assay: Btk-PolyGAT-LS Assay. In kind it is biochemical. As to conditions: active BTK enzyme 0.25 nM, ATP 10 μM, polyGAT 100 nM, 30 minutes. As to the method: In Vitro BTK Kinase Assay: Btk-PolyGAT-LS Assay
The purpose of the BTK in vitro assay is to determine compound potency against BTK through the measurement of IC50. […] The BTK kinase reaction was done in a black 96 well plate (costar 3694). For a typical assay, a […] aliquot of a ATP/peptide master mix (final concentration; ATP 10 μM, polyGAT 100 nM) in kinase buffer (10 mM Tris-HCl pH 7.5, 10 mM MgCl2, 200 μM […], 5 mM DTT, 0.01% Triton X-100, and 0.2 mg/ml casein) is added to each well. Next, […] of a 4-fold, 40× compound titration in 100% DMSO solvent is added, followed by adding 15 uL of BTK enzyme mix in 1× kinase buffer (with a final concentration of 0.25 nM). The assay is incubated for 30 minutes before being stopped with […] of a 50 mM EDTA solution. Aliquots (5 uL) of the kinase reaction are transferred to a low volume white 384 well plate (Corning 3674), and […] of a 2× detection buffer (Invitrogen PV3574, with 4 nM Tb-PY20 antibody, Invitrogen PV3552) is added. The plate is covered and incubated for 45 minutes at room temperature. Time resolved fluorescence (TRF) on Molecular Devices M5 (332 nm excitation; 488 nm emission; 518 nm fluorescein emission) is measured.
`Cc1cc(-c2ncnn3cc(-c4cnn(C)c4)cc23)ccc1CNC(=O)c1noc(C(C)(C)C)n1` [Example 80, 5-(tert-butyl)-N-(2-methyl-4-(6-(1-methyl-1H-pyrazol-4-yl)pyrrolo[2,1-f][1,2,4]triazin-4-yl)benzyl)-1,2,4-oxadiazole-3-carboxamide]: the IC50 is at most 1 nM.
The value for `Cc1cc(-c2ncnn3cc(-c4cnn(C)c4C)cc23)ccc1CNC(=O)c1cnc(C(C)(C)C)o1` [Example 131] was 1 to 10 nM; that for `Cc1cc(-c2ncnn3cc(N4C[C@@H](C)O[C@H](C)C4)cc23)ccc1CNC(=O)c1noc(C(C)(C)C)n1` (single isomer, unassigned) [Example 43] was at most 1 nM; that for `Cc1cc(-c2ncnn3cc(N4CCN(C)[C@@H](C)C4)cc23)ccc1CNC(=O)c1noc(C(C)(C)C)n1` (single isomer, unassigned) [Example 116] was at most 1 nM.
The value for `Cn1cc(-c2cc3c(-c4ccc(CNC(=O)c5nc(C(C)(C)C)no5)c(CC(F)F)c4)ncnn3c2)cn1` [Example 207] was at most 1 nM.
The value for `Cc1cc(-c2ncnn3cc(N4CCO[C@@H](C)C4)cc23)ccc1CNC(=O)c1coc(C(C)(C)C)n1` (single isomer, unassigned) [Example 144] was at most 1 nM; that for `Cc1cc(-c2ncnn3cc(N4CC[C@@H](F)C4)cc23)ccc1CNC(=O)c1noc(C(C)(C)C)n1` (single isomer, unassigned) [Example 142] was at most 1 nM; that for `Cc1cc(-c2ncnn3cc(-c4ccccn4)cc23)ccc1CNC(=O)c1noc(C(C)(C)C)n1` [Example 230] was at most 1 nM.
With `Cc1cc(-c2cc3c(-c4ccc(CNC(=O)c5noc(C(C)(C)C)n5)c(C)c4)ncnn3c2)ccn1` [Example 227], the IC50 is at most 1 nM.
`Cc1cc(-c2ccnc3cc(N4CCOCC4)nn23)ccc1CNC(=O)c1noc(C(C)(C)C)n1` [Example 22, 5-(tert-butyl)-N-(2-methyl-4-(2-morpholinopyrazolo[1,5-a]pyrimidin-7-yl)benzyl)-1,2,4-oxadiazole-3-carboxamide] gave an IC50 of 1 to 10 nM.
In the case of `Cc1cc(-c2ncnn3cc(-c4cnsc4)cc23)ccc1CNC(=O)c1noc(C(C)(C)C)n1` [Example 172], the IC50 was over 10 nM.
The value for `Cc1cc(-c2ccnc3ccnn23)ccc1CNC(=O)c1noc(C(C)(C)C)n1` [Example 50] was 1 to 10 nM.
The value for `Cn1cc(-c2cc3c(-c4ccc(CNC(=O)c5cnn(C(C)(C)C)c5)c(C(F)(F)F)c4)ncnn3c2)cn1` [Example 61, 1-(tert-butyl)-N-(4-(6-(1-methyl-1H-pyrazol-4-yl)pyrrolo[2,1-f][1,2,4]triazin-4-yl)-2-(trifluoromethyl)benzyl)-1H-pyrazole-4-carboxamide] was at most 1 nM; that for `COC1CN(C(=O)c2cc3c(-c4ccc(CNC(=O)c5noc(C(C)(C)C)n5)c(C)c4)ncnn3c2)C1` [Example 217] was at most 1 nM; that for `Cc1c(CNC(=O)c2noc(C(C)(C)C)n2)ccc(-c2ncnn3cc(N4CCOCC4)cc23)c1F` [Example 86] was at most 1 nM.
To `Cn1cc(-c2cc3c(-c4ccc(CNC(=O)c5cnn(C(C)(C)C)c5)c(C(F)F)c4)ncnn3c2)cn1` [Example 212] belongs at most 1 nM.
The compound `CC(C)(C)n1cc(C(=O)NCc2ccc(-c3ncnn4cc(N5CCOCC5)cc34)c(F)c2Cl)cn1` [Example 155] showed an IC50 of at most 1 nM.
The value for `Cc1cc(-c2ccnn3cccc23)ccc1CNC(=O)c1noc(C(C)(C)C)n1` [Example 17, 5-(tert-butyl)-N-(2-methyl-4-(pyrrolo[1,2-b]pyridazin-4-yl)benzyl)-1,2,4-oxadiazole-3-carboxamide] was 1 to 10 nM; that for `CC(C)(C)c1nc(C(=O)NCc2ccc(-c3ncnn4cc(N5CCOCC5)cc34)c(F)c2Cl)no1` [Example 154] was at most 1 nM.
To `Cc1cc(-c2ncnn3cccc23)ccc1CNC(=O)c1ccn(C(C)(C)C)n1` [Example 182] belongs over 10 nM.
To `Cn1cc(-c2cc3c(-c4ccc(CNC(=O)c5coc(C(C)(C)C)n5)c(C(F)F)c4)ncnn3c2)cn1` [Example 211] belongs at most 1 nM.
For `CC(C)(C)c1nnc(C(=O)NCc2ccc(-c3ncnn4cc(C5=CCOCC5)cc34)cc2C(F)F)o1` [Example 213], the IC50 is 1 to 10 nM.
To `Cc1cc(-c2ncnn3cc(N4CC[C@H](F)C4)cc23)ccc1CNC(=O)c1noc(C(C)(C)C)n1` (single isomer, unassigned) [Example 141] belongs at most 1 nM.
The value for `CC(C)(C)c1nc(C(=O)NCc2ccc(-c3ncnn4cccc34)cc2C(F)(F)F)no1` [Example 179] was 1 to 10 nM.
The value for `Cc1cc(-c2ncnn3cccc23)ccc1CNC(=O)c1cnn(C(C)(C)C)c1` [Example 183] was 1 to 10 nM; that for `Cc1cc(-c2ncnn3cc(-c4cnn(C5CC5)c4)cc23)ccc1CNC(=O)c1noc(C(C)(C)C)n1` [Example 237] was at most 1 nM; that for `Cc1cc(-c2ncnn3cc(C4=CCOCC4)cc23)ccc1CNC(=O)c1coc(C(C)(C)C)n1` [Example 124] was at most 1 nM.
`CC(C)(C)c1nc(C(=O)NCc2ccc(-c3ncnn4cc(N5CCOCC5)cc34)c(F)c2C(F)F)no1` [Example 221] registered a concentration for half-maximal inhibition (IC50) of at most 1 nM.
The value for `COc1c(CNC(=O)c2nnc(C(C)(C)C)o2)ccc(-c2ncnn3cc(-c4cnn(C)c4)cc23)c1F` [Example 201] was 1 to 10 nM; that for `CC(C)(C)n1cc(C(=O)NCc2ccc(-c3ncnn4cc(N5CCOCC5)cc34)cc2C2CC2)nn1` [Example 205] was 1 to 10 nM; that for `CC(C)(C)c1noc(C(=O)NCc2cc(F)c(-c3ncnn4cccc34)cc2Cl)n1` [Example 133] was 1 to 10 nM.
`Cc1cc(-c2ncnn3cc(N4CCN(C5COC5)C[C@@H]4C)cc23)ccc1CNC(=O)c1noc(C(C)(C)C)n1` [Example 75, (S)-5-(tert-butyl)-N-(2-methyl-4-(6-(2-methyl-4-(oxetan-3-yl)piperazin-1-yl)pyrrolo[2,1-f][1,2,4]triazin-4-yl)benzyl)-1,2,4-oxadiazole-3-carboxamide] gave an IC50 of 1 to 10 nM.
Compound `Cc1cc(-c2ncnn3cc(C4=CCOCC4)cc23)ccc1CNC(=O)c1nnn(C(C)(C)C)n1` [Example 128] yielded an IC50 of at most 1 nM.
The value for `COc1cc(-c2cc3c(-c4ccc(CNC(=O)c5noc(C(C)(C)C)n5)c(C)c4)ncnn3c2)ccn1` [Example 228] was at most 1 nM.
For the compound `Cc1cc(-c2ncnn3cc(-c4cn[nH]c4)cc23)ccc1CNC(=O)c1noc(C(C)(C)C)n1` [Example 85], the IC50 is at most 1 nM.
The value for `Cc1c(CNC(=O)c2nnc(C(C)(C)C)o2)ccc(-c2ncnn3cc(N4CCOCC4)cc23)c1F` [Example 81] was 1 to 10 nM; that for `CC(C)(C)c1noc(C(=O)NCc2ccc(-c3ncnn4cc(N5CCOCC5)cc34)cc2Cl)n1` [Example 159] was at most 1 nM.
Compound `CC(C)(C)n1cc(C(=O)NCc2ccc(-c3ncnn4cc(N5CCOCC5)cc34)cc2Cl)nn1` [Example 162] displayed an IC50 of 1 to 10 nM.
To `Cc1cc(-c2ncnn3cc(-c4cnco4)cc23)ccc1CNC(=O)c1noc(C(C)(C)C)n1` [Example 110] belongs at most 1 nM.
The value for `Cc1cc(-c2ncnn3cc(C4CCN(C)C4)cc23)ccc1CNC(=O)c1noc(C(C)(C)C)n1` (stereo not shown) [Example 149] was 1 to 10 nM; that for `Cc1cc(-c2ncnn3cc(-c4cnn(CC(F)F)c4)cc23)ccc1CNC(=O)c1nnn(C(C)(C)C)n1` [Example 146] was at most 1 nM.
The compound `Cc1cc(-c2ncnn3cc(N4CCOCC4)cc23)ccc1CNC(=O)c1nnn(C(C)(C)C)n1` [Example 114] returned an IC50 of at most 1 nM.
To `Cc1cc(-c2ncnn3cc(C4CCOCC4)cc23)ccc1CNC(=O)c1nc(C(C)(C)C)no1` [Example 72, 3-(tert-butyl)-N-(2-methyl-4-(6-(tetrahydro-2H-pyran-4-yl)pyrrolo[2,1-f][1,2,4]triazin-4-yl)benzyl)-1,2,4-oxadiazole-5-carboxamide trifluoroacetate] belongs 1 to 10 nM; to `CC(C)(C)c1nc(C(=O)NCc2ccc(-c3ncnn4cccc34)cc2C(F)F)no1` [Example 181], 1 to 10 nM.
To `Cc1cc(-c2ncnn3cccc23)ccc1CNC(=O)c1nnc(C(C)(C)C)o1` [Example 185] belongs over 10 nM; to `Cc1cc(-c2ncnn3cccc23)ccc1CNC(=O)c1nnn(C(C)(C)C)n1` [Example 214], 1 to 10 nM.
The value for `Cc1cc(-c2ncnn3cc(N4CCn5ccnc5C4)cc23)ccc1CNC(=O)c1noc(C(C)(C)C)n1` [Example 120] was at most 1 nM.
`Cc1cc(-c2ncnn3cc(OC4CCOCC4)cc23)ccc1CNC(=O)c1noc(C(C)(C)C)n1` [Example 79, 5-(tert-butyl)-N-(2-methyl-4-(6-((tetrahydro-2H-pyran-4-yl)oxy)pyrrolo[2,1-f][1,2,4]triazin-4-yl)benzyl)-1,2,4-oxadiazole-3-carboxamide]: the IC50 is 1 to 10 nM.
To `Cc1cc(-c2ncnn3cc(-c4cnn(C(F)F)c4)cc23)ccc1CNC(=O)c1noc(C(C)(C)C)n1` [Example 107] belongs at most 1 nM.

Broadly, the IC50 is the midpoint of a concentration-inhibition curve. High values mean lower potency, low ones higher potency.
